{"source": "patent US20260285850A1", "about": "“SUBSTITUTED OXAZOLIDINONES AND IMIDAZOLINONES AS HERBICIDES” (FMC CORPORATION, priority 2023, published 2026)", "format_in_all_cases": "in vivo", "key": {"[1]": {"test_system": "galium (catchweed bedstraw, Galium aparine)", "test": "Test A postemergence application, visual injury rating 0-100", "method_in_brief": "(§1)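 Scale 0–100 (no effect to complete control), visual, versus untreated controls, read 10 days after application. Application: preemergence directed spray onto seeded loam–sand soil, or postemergence to young plants; formulation in non-phytotoxic solvent with surfactant.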"}, "[2]": {"test_system": "oat, wild (wild oat, Avena fatua)", "test": "Test A postemergence application, visual injury rating 0-100", "method_in_brief": "as §1"}, "[3]": {"test_system": "barnyardgrass (Echinochloa crus-galli)", "test": "Test A postemergence application, visual injury rating 0-100", "method_in_brief": "as §1"}, "[4]": {"test_system": "horseweed (Erigeron canadensis)", "test": "Test A postemergence application, visual injury rating 0-100", "method_in_brief": "as §1"}, "[5]": {"test_system": "ryegrass, Italian (italian ryegrass, Lolium multiflorum)", "test": "Test A postemergence application, visual injury rating 0-100", "method_in_brief": "as §1"}, "[6]": {"test_system": "green foxtail (Setaria viridis)", "test": "Test A postemergence application, visual injury rating 0-100", "method_in_brief": "as §1"}, "kochia (Bassia scoparia) [7]": {"test_system": "kochia (Bassia scoparia)", "test": "Test A postemergence application, visual injury rating 0-100", "method_in_brief": "as §1"}, "soybean (Glycine max) [8]": {"test_system": "soybean (Glycine max)", "test": "Test A postemergence application, visual injury rating 0-100", "method_in_brief": "as §1"}, "[9]": {"test_system": "wheat (Triticum aestivum)", "test": "Test A postemergence application, visual injury rating 0-100", "method_in_brief": "as §1"}, "[10]": {"test_system": "palmer (palmer amaranth, palmer pigweed, Amaranthus palmeri)", "test": "Test A postemergence application, visual injury rating 0-100", "method_in_brief": "as §1"}, "[11]": {"test_system": "blackgrass (Alopecurus myosuroides)", "test": "Test A postemergence application, visual injury rating 0-100", "method_in_brief": "as §1"}, "corn (Zea mays) [12]": {"test_system": "corn (Zea mays)", "test": "Test A postemergence application, visual injury rating 0-100", "method_in_brief": "as §1"}, "[13]": {"test_system": "ragweed (common ragweed, Ambrosia artemisiifolia)", "test": "Test A postemergence application, visual injury rating 0-100", "method_in_brief": "as §1"}, "[14]": {"test_system": "ducksalad (Heteranthera limosa)", "test": "Test B flooded paddy test, visual plant response rating 0-100", "settings": "250 g ai/ha, Flood, applied to paddy water, evaluated after 13 days", "method_in_brief": "(§2)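 Visual evaluation after 13 days. Water-applied treatment, 3 cm flood depth held constant, plants at 2-leaf stage at treatment.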"}, "[15]": {"test_system": "sedge, umbrella (small-flower umbrella sedge, Cyperus difformis)", "test": "Test B flooded paddy test, visual plant response rating 0-100", "settings": "250 g ai/ha, Flood, applied to paddy water, evaluated after 13 days", "method_in_brief": "as §2"}, "[16]": {"test_system": "barnyardgrass (Echinochloa crusgalli)", "test": "Test B flooded paddy test, visual plant response rating 0-100", "settings": "250 g ai/ha, Flood, applied to paddy water, evaluated after 13 days", "method_in_brief": "as §2"}, "rice (Oryza sativa)": {"test_system": "rice (Oryza sativa)", "test": "Test B flooded paddy test, visual plant response rating 0-100", "settings": "250 g ai/ha, Flood, applied to paddy water, evaluated after 13 days", "method_in_brief": "as §2"}, "[17]": {"test_system": "oat, wild (wild oat, Avena fatua)", "test": "Test A preemergence soil spray, visual injury rating 0-100", "settings": "10 days", "method_in_brief": "as §1"}, "[18]": {"test_system": "barnyardgrass (Echinochloa crus-galli)", "test": "Test A preemergence soil spray, visual injury rating 0-100", "settings": "10 days", "method_in_brief": "as §1"}, "[19]": {"test_system": "ryegrass, Italian (italian ryegrass, Lolium multiflorum)", "test": "Test A preemergence soil spray, visual injury rating 0-100", "settings": "10 days", "method_in_brief": "as §1"}, "[20]": {"test_system": "green foxtail (Setaria viridis)", "test": "Test A preemergence soil spray, visual injury rating 0-100", "settings": "10 days", "method_in_brief": "as §1"}, "kochia (Bassia scoparia) [21]": {"test_system": "kochia (Bassia scoparia)", "test": "Test A preemergence soil spray, visual injury rating 0-100", "settings": "10 days", "method_in_brief": "as §1"}, "soybean (Glycine max) [22]": {"test_system": "soybean (Glycine max)", "test": "Test A preemergence soil spray, visual injury rating 0-100", "settings": "10 days", "method_in_brief": "as §1"}, "[23]": {"test_system": "wheat (Triticum aestivum)", "test": "Test A preemergence soil spray, visual injury rating 0-100", "settings": "10 days", "method_in_brief": "as §1"}, "[24]": {"test_system": "palmer (palmer amaranth, palmer pigweed, Amaranthus palmeri)", "test": "Test A preemergence soil spray, visual injury rating 0-100", "settings": "10 days", "method_in_brief": "as §1"}, "[25]": {"test_system": "blackgrass (Alopecurus myosuroides)", "test": "Test A preemergence soil spray, visual injury rating 0-100", "settings": "10 days", "method_in_brief": "as §1"}, "corn (Zea mays) [26]": {"test_system": "corn (Zea mays)", "test": "Test A preemergence soil spray, visual injury rating 0-100", "settings": "10 days", "method_in_brief": "as §1"}, "[27]": {"test_system": "ragweed (common ragweed, Ambrosia artemisiifolia)", "test": "Test A preemergence soil spray, visual injury rating 0-100", "settings": "10 days", "method_in_brief": "as §1"}, "[28]": {"settings": "62 g ai/ha, postemergence, 10 days, 0 = no effect, 100 = complete control"}, "[29]": {"settings": "Postemergence, 16 g ai/ha, greenhouse 10 days, 0 no effect, 100 complete control"}, "[30]": {"settings": "62 g ai/ha, 0 = no effect, 100 = complete control"}}, "data": [{"compound": "CC1(C(=O)NC2C=CC(C(=O)O)C2)CN(c2cc(F)cc(F)c2)C(=O)O1", "note": "(stereo not shown) [Compound 131]", "values": [{"measurement": "Galium plant response rating (0-100)", "setting": "[1]; [28]", "result": 90}, {"measurement": "Galium plant response rating (0 to 100 scale)", "setting": "[1]; [29]", "result": 70}, {"measurement": "Oat, Wild plant response rating (0-100)", "setting": "[2]; [28]", "result": 90}, {"measurement": "Oat, Wild plant response rating (0 to 100 scale)", "setting": "[2]; [29]", "result": 90}, {"measurement": "Barnyardgrass plant response rating (0-100)", "setting": "[3]; [28]", "result": 100}, {"measurement": "Barnyardgrass plant response rating (0 to 100 scale)", "setting": "[3]; [29]", "result": 90}, {"measurement": "Horseweed plant response rating (0-100)", "setting": "[4]; [28]", "result": 80}, {"measurement": "Horseweed plant response rating (0 to 100 scale)", "setting": "[4]; [29]", "result": 40}, {"measurement": "Ryegrass, Italian plant response rating (0-100)", "setting": "[5]; [28]", "result": 90}, {"measurement": "Ryegrass, Italian plant response rating (0 to 100 scale)", "setting": "[5]; [29]", "result": 10}, {"measurement": "Foxtail, Green plant response rating (0-100)", "setting": "[6]; [28]", "result": 90}, {"measurement": "Foxtail, Green plant response rating (0 to 100 scale)", "setting": "[6]; [29]", "result": 30}, {"measurement": "Kochia plant response rating (0-100)", "setting": "kochia (Bassia scoparia) [7]; [28]", "result": 50}, {"measurement": "Kochia plant response rating (0 to 100 scale)", "setting": "kochia (Bassia scoparia) [7]; [29]", "result": 20}, {"measurement": "Soybean plant response rating (0-100)", "setting": "soybean (Glycine max) [8]; [28]", "result": 80}, {"measurement": "Soybean plant response rating (0 to 100 scale)", "setting": "soybean (Glycine max) [8]; [29]", "result": 80}, {"measurement": "Wheat plant response rating (0-100)", "setting": "[9]; [28]", "result": 90}, {"measurement": "Wheat plant response rating (0 to 100 scale)", "setting": "[9]; [29]", "result": 90}, {"measurement": "Pigweed, Palmer plant response rating (0-100)", "setting": "[10]; [28]", "result": 80}, {"measurement": "Pigweed, Palmer plant response rating (0 to 100 scale)", "setting": "[10]; [29]", "result": 20}, {"measurement": "Blackgrass plant response rating (0-100)", "setting": "[11]; [28]", "result": 90}, {"measurement": "Blackgrass plant response rating (0 to 100 scale)", "setting": "[11]; [29]", "result": 90}, {"measurement": "Corn plant response rating (0-100)", "setting": "corn (Zea mays) [12]; [28]", "result": 100}, {"measurement": "Corn plant response rating (0 to 100 scale)", "setting": "corn (Zea mays) [12]; [29]", "result": 50}, {"measurement": "Ragweed plant response rating (0-100)", "setting": "[13]; [28]", "result": 70}, {"measurement": "Ragweed plant response rating (0 to 100 scale)", "setting": "[13]; [29]", "result": 0}, {"measurement": "Plant response rating, Ducksalad (0 to 100 scale, 0 is no effect and 100 is complete control)", "setting": "[14]", "result": 80}, {"measurement": "Plant response rating, Sedge, Umbrella (0 to 100 scale, 0 is no effect and 100 is complete control)", "setting": "[15]", "result": 95}, {"measurement": "Plant response rating, Barnyardgrass (0 to 100 scale, 0 is no effect and 100 is complete control)", "setting": "[16]", "result": 95}, {"measurement": "Plant response rating, Rice (0 to 100 scale, 0 is no effect and 100 is complete control)", "setting": "rice (Oryza sativa)", "result": 70}, {"measurement": "Oat, Wild plant response rating", "setting": "[17]; 16 g ai/ha, 0 to 100 scale", "result": 0}, {"measurement": "Oat, Wild plant response rating (0-100)", "setting": "[17]; [30]", "result": 60}, {"measurement": "Barnyardgrass plant response rating", "setting": "[18]; 16 g ai/ha, 0 to 100 scale", "result": 0}, {"measurement": "Barnyardgrass plant response rating (0-100)", "setting": "[18]; [30]", "result": 80}, {"measurement": "Ryegrass, Italian plant response rating", "setting": "[19]; 16 g ai/ha, 0 to 100 scale", "result": 0}, {"measurement": "Ryegrass, Italian plant response rating (0-100)", "setting": "[19]; [30]", "result": 90}, {"measurement": "Foxtail, Green plant response rating", "setting": "[20]; 16 g ai/ha, 0 to 100 scale", "result": 0}, {"measurement": "Foxtail, Green plant response rating (0-100)", "setting": "[20]; [30]", "result": 100}, {"measurement": "Kochia plant response rating", "setting": "kochia (Bassia scoparia) [21]; 16 g ai/ha, 0 to 100 scale", "result": 0}, {"measurement": "Kochia plant response rating (0-100)", "setting": "kochia (Bassia scoparia) [21]; [30]", "result": 90}, {"measurement": "Soybean plant response rating", "setting": "soybean (Glycine max) [22]; 16 g ai/ha, 0 to 100 scale", "result": 0}, {"measurement": "Soybean plant response rating (0-100)", "setting": "soybean (Glycine max) [22]; [30]", "result": 80}, {"measurement": "Wheat plant response rating", "setting": "[23]; 16 g ai/ha, 0 to 100 scale", "result": 30}, {"measurement": "Wheat plant response rating (0-100)", "setting": "[23]; [30]", "result": 90}, {"measurement": "Pigweed, Palmer plant response rating", "setting": "[24]; 16 g ai/ha, 0 to 100 scale", "result": 0}, {"measurement": "Pigweed, Palmer plant response rating (0-100)", "setting": "[24]; [30]", "result": 80}, {"measurement": "Blackgrass plant response rating", "setting": "[25]; 16 g ai/ha, 0 to 100 scale", "result": 30}, {"measurement": "Blackgrass plant response rating (0-100)", "setting": "[25]; [30]", "result": 90}, {"measurement": "Corn plant response rating", "setting": "corn (Zea mays) [26]; 16 g ai/ha, 0 to 100 scale", "result": 10}, {"measurement": "Corn plant response rating (0-100)", "setting": "corn (Zea mays) [26]; [30]", "result": 80}, {"measurement": "Ragweed plant response rating", "setting": "[27]; 16 g ai/ha, 0 to 100 scale", "result": 0}, {"measurement": "Ragweed plant response rating (0-100)", "setting": "[27]; [30]", "result": 10}]}]}
